{
  "source": "patent US20040037773A1",
  "about": "“Method for detecting abnormal tissue using enhanced radiopharmaceutical uptake” (Block Medical Center, priority 2002, published 2004)",
  "origin": "cited, not measured here",
  "test_system": "mitochondria",
  "details": "energy dependent manner",
  "data": [
    {"smiles": "[99Tc+].[C-]#[N+]CC(C)(C)OC.[C-]#[N+]CC(C)(C)OC.[C-]#[N+]CC(C)(C)OC.[C-]#[N+]CC(C)(C)OC.[C-]#[N+]CC(C)(C)OC.[C-]#[N+]CC(C)(C)OC", "note": "[sestamibi, Technetium-99m hexakis 2-methoxyisobutylisonitrile]", "values": [
      {"measurement": "Share of sestamibi taken up by mitochondria", "result": "over 90%"}
    ]}
  ]
}
